Laboratory results: ChEMBL document CHEMBL4020788, “Synthesis, SAR and molecular docking studies of benzo[d]thiazole-hydrazones as potential antibacterial and antifungal agents” (2017)
Converted amounts (≈) assume the structure as drawn. The source made the active and inactive calls. The rule behind the calls is not given here.

Experiments:
Assay type in all cases: functional
Staphylococcus aureus [1] = test: Antibacterial activity against Staphylococcus aureus at 25 ug/ml after 24 hrs by agar well diffusion method; conditions: read-out: DIZ
Staphylococcus aureus [2] = test: Antibacterial activity against Staphylococcus aureus at 50 ug/ml after 24 hrs by agar well diffusion method; conditions: read-out: DIZ
Staphylococcus aureus [3] = test: Antibacterial activity against Staphylococcus aureus at 75 ug/ml after 24 hrs by agar well diffusion method; conditions: read-out: DIZ
Staphylococcus aureus [4] = test: Antibacterial activity against Staphylococcus aureus at 100 ug/ml after 24 hrs by agar well diffusion method; conditions: read-out: DIZ
Bacillus subtilis [5] = test: Antibacterial activity against Bacillus subtilis at 25 ug/ml after 24 hrs by agar well diffusion method; conditions: for zone of inhibition at 25 µg/mL: read-out: DIZ
Bacillus subtilis [6] = test: Antibacterial activity against Bacillus subtilis at 50 ug/ml after 24 hrs by agar well diffusion method; conditions: for zone of inhibition at 50 µg/mL: read-out: DIZ
Bacillus subtilis [7] = test: Antibacterial activity against Bacillus subtilis at 75 ug/ml after 24 hrs by agar well diffusion method; conditions: for zone of inhibition at 75 µg/mL: read-out: DIZ
Bacillus subtilis [8] = test: Antibacterial activity against Bacillus subtilis at 100 ug/ml after 24 hrs by agar well diffusion method; conditions: for zone of inhibition at 100 µg/mL: read-out: DIZ
Escherichia coli [9] = test: Antibacterial activity against Escherichia coli at 25 ug/ml after 24 hrs by agar well diffusion method; conditions: for zone of inhibition at 25 µg/mL: read-out: DIZ
Escherichia coli [10] = test: Antibacterial activity against Escherichia coli at 50 ug/ml after 24 hrs by agar well diffusion method; conditions: for zone of inhibition at 50 µg/mL: read-out: DIZ
Escherichia coli [11] = test: Antibacterial activity against Escherichia coli at 75 ug/ml after 24 hrs by agar well diffusion method; conditions: for zone of inhibition at 75 µg/mL: read-out: DIZ
Escherichia coli [12] = test: Antibacterial activity against Escherichia coli at 100 ug/ml after 24 hrs by agar well diffusion method; conditions: for zone of inhibition at 100 µg/mL: read-out: DIZ
Klebsiella pneumoniae [13] = test: Antibacterial activity against Klebsiella pneumoniae at 25 ug/ml after 24 hrs by agar well diffusion method; conditions: read-out: DIZ
Klebsiella pneumoniae [14] = test: Antibacterial activity against Klebsiella pneumoniae at 50 ug/ml after 24 hrs by agar well diffusion method; conditions: read-out: DIZ
Klebsiella pneumoniae [15] = test: Antibacterial activity against Klebsiella pneumoniae at 75 ug/ml after 24 hrs by agar well diffusion method; conditions: read-out: DIZ
Klebsiella pneumoniae [16] = test: Antibacterial activity against Klebsiella pneumoniae at 100 ug/ml after 24 hrs by agar well diffusion method; conditions: read-out: DIZ
Staphylococcus aureus [17] = test: Antibacterial activity against methicillin resistant Staphylococcus aureus MRSA090 at 25 ug/ml after 24 hrs by agar well diffusion method; conditions: MRSA090, 24 h, read-out: DIZ
Staphylococcus aureus [18] = test: Antibacterial activity against methicillin resistant Staphylococcus aureus MRSA090 at 50 ug/ml after 24 hrs by agar well diffusion method; conditions: MRSA090, 24 h, read-out: DIZ
Staphylococcus aureus [19] = test: Antibacterial activity against methicillin resistant Staphylococcus aureus MRSA090 at 75 ug/ml after 24 hrs by agar well diffusion method; conditions: MRSA090, 24 h, read-out: DIZ
Staphylococcus aureus [20] = test: Antibacterial activity against methicillin resistant Staphylococcus aureus MRSA090 at 100 ug/ml after 24 hrs by agar well diffusion method; conditions: MRSA090, 24 h, read-out: DIZ
Aspergillus niger [21] = test: Antifungal activity against Aspergillus niger at 25 ug/ml after 48 hrs by agar well diffusion method
Aspergillus niger [22] = test: Antifungal activity against Aspergillus niger at 50 ug/ml after 48 hrs by agar well diffusion method
Aspergillus niger [23] = test: Antifungal activity against Aspergillus niger at 75 ug/ml after 48 hrs by agar well diffusion method
Aspergillus niger [24] = test: Antifungal activity against Aspergillus niger at 100 ug/ml after 48 hrs by agar well diffusion method
Fusarium verticillioides [25] = test: Antifungal activity against Fusarium moniliforme at 25 ug/ml after 48 hrs by agar well diffusion method
Fusarium verticillioides [26] = test: Antifungal activity against Fusarium moniliforme at 50 ug/ml after 48 hrs by agar well diffusion method
Fusarium verticillioides [27] = test: Antifungal activity against Fusarium moniliforme at 75 ug/ml after 48 hrs by agar well diffusion method
Fusarium verticillioides [28] = test: Antifungal activity against Fusarium moniliforme at 100 ug/ml after 48 hrs by agar well diffusion method
Fusarium oxysporum [29] = test: Antifungal activity against Fusarium oxysporum at 25 ug/ml after 48 hrs by agar well diffusion method
Fusarium oxysporum [30] = test: Antifungal activity against Fusarium oxysporum at 50 ug/ml after 48 hrs by agar well diffusion method; conditions: read-out: DIZ
Fusarium oxysporum [31] = test: Antifungal activity against Fusarium oxysporum at 75 ug/ml after 48 hrs by agar well diffusion method; conditions: read-out: DIZ
Fusarium oxysporum [32] = test: Antifungal activity against Fusarium oxysporum at 100 ug/ml after 48 hrs by agar well diffusion method; conditions: read-out: DIZ
Klebsiella pneumoniae [33] = test: Antibacterial activity against Klebsiella pneumoniae incubated for overnight by microdilution method
Staphylococcus aureus [34] = test: Antibacterial activity against Staphylococcus aureus incubated for overnight by microdilution method
Bacillus subtilis [35] = test: Antibacterial activity against Bacillus subtilis incubated for overnight by microdilution method
Escherichia coli [36] = test: Antibacterial activity against Escherichia coli incubated for overnight by microdilution method
Staphylococcus aureus [37] = test: Antibacterial activity against methicillin resistant Staphylococcus aureus MRSA090 incubated for overnight by microdilution method

SMILES	zone of inhibition at 25 µg/mL (Staphylococcus aureus [1]) [mm]	zone of inhibition at 50 µg/mL (Staphylococcus aureus [2]) [mm]	zone of inhibition at 75 µg/mL (Staphylococcus aureus [3]) [mm]	zone of inhibition at 100 µg/mL (Staphylococcus aureus [4]) [mm]	zone of inhibition at 25 µg/mL (Bacillus subtilis [5]) [mm]	zone of inhibition at 50 µg/mL (Bacillus subtilis [6]) [mm]	zone of inhibition at 75 µg/mL (Bacillus subtilis [7]) [mm]	zone of inhibition at 100 µg/mL (Bacillus subtilis [8]) [mm]	zone of inhibition at 25 µg/mL (Escherichia coli [9]) [mm]	zone of inhibition at 50 µg/mL (Escherichia coli [10]) [mm]	zone of inhibition at 75 µg/mL (Escherichia coli [11]) [mm]	zone of inhibition at 100 µg/mL (Escherichia coli [12]) [mm]	zone of inhibition at 25 µg/mL (Klebsiella pneumoniae [13]) [mm]	zone of inhibition at 50 µg/mL (Klebsiella pneumoniae [14]) [mm]	zone of inhibition at 75 µg/mL (Klebsiella pneumoniae [15]) [mm]	zone of inhibition at 100 µg/mL (Klebsiella pneumoniae [16]) [mm]	zone of inhibition at 25 µg/mL (Staphylococcus aureus [17]) [mm]	zone of inhibition at 50 µg/mL (Staphylococcus aureus [18]) [mm]	zone of inhibition at 75 µg/mL (Staphylococcus aureus [19]) [mm]	zone of inhibition at 100 µg/mL (Staphylococcus aureus [20]) [mm]	further results
COc1ccc(/C=N/Nc2nc3cccc(C)c3s2)c(OC)c1	10	15	20	28	13	19	25	29	13	18	24	23	4	9	12	15	15	18	22	27	diameter of the inhibition zone (DIZ) (Aspergillus niger [21]): inactive; diameter of the inhibition zone (DIZ) (Aspergillus niger [22]): inactive; diameter of the inhibition zone (DIZ) (Aspergillus niger [23]): inactive; zone of inhibition at 100 µg/mL (Aspergillus niger [24]; read-out: DIZ): 4 mm; diameter of the inhibition zone (DIZ) (Fusarium verticillioides [25]): inactive; diameter of the inhibition zone (DIZ) (Fusarium verticillioides [26]): inactive; diameter of the inhibition zone (DIZ) (Fusarium verticillioides [27]): inactive; diameter of the inhibition zone (DIZ) (Fusarium verticillioides [28]): inactive; zone of inhibition at 25 µg/mL (Fusarium oxysporum [29]; read-out: DIZ): 7 mm; zone of inhibition at 50 µg/mL (Fusarium oxysporum [30]): 12 mm; zone of inhibition at 75 µg/mL (Fusarium oxysporum [31]): 14 mm; zone of inhibition at 100 µg/mL (Fusarium oxysporum [32]): 17 mm; MIC (Klebsiella pneumoniae [33]): 22 µg/mL (≈ 67.2 µM); MIC (Staphylococcus aureus [34]): 26 µg/mL (≈ 79.4 µM); MIC (Bacillus subtilis [35]): 24 µg/mL (≈ 73.3 µM); MIC (Escherichia coli [36]): 25 µg/mL (≈ 76.4 µM); MIC (Staphylococcus aureus [37]): 22 µg/mL (≈ 67.2 µM)
O=C(N[C@H](CO)[C@H](O)c1ccc([N+](=O)[O-])cc1)C(Cl)Cl [CHLORAMPHENICOL]	24	28	34	37	21	25	31	34	23	27	32	38	24	29	33	36	19	22	27	31	MIC (Klebsiella pneumoniae [33]): 28 µg/mL (≈ 86.7 µM); MIC (Staphylococcus aureus [34]): 27 µg/mL (≈ 83.6 µM); MIC (Bacillus subtilis [35]): 27 µg/mL (≈ 83.6 µM); MIC (Escherichia coli [36]): 25 µg/mL (≈ 77.4 µM); MIC (Staphylococcus aureus [37]): 25 µg/mL (≈ 77.4 µM)
COc1cc(/C=N/Nc2nc3cccc(C)c3s2)ccc1OCc1ccccc1	7	11	14	18									7	12	14	17	5	10	12	14	diameter of the inhibition zone (DIZ) (Bacillus subtilis [5]): inactive; diameter of the inhibition zone (DIZ) (Bacillus subtilis [6]): inactive; diameter of the inhibition zone (DIZ) (Bacillus subtilis [7]): inactive; diameter of the inhibition zone (DIZ) (Bacillus subtilis [8]): inactive; diameter of the inhibition zone (DIZ) (Escherichia coli [9]): inactive; diameter of the inhibition zone (DIZ) (Escherichia coli [10]): inactive; diameter of the inhibition zone (DIZ) (Escherichia coli [11]): inactive; diameter of the inhibition zone (DIZ) (Escherichia coli [12]): inactive; diameter of the inhibition zone (DIZ) (Aspergillus niger [21]): inactive; diameter of the inhibition zone (DIZ) (Aspergillus niger [22]): inactive; diameter of the inhibition zone (DIZ) (Aspergillus niger [23]): inactive; diameter of the inhibition zone (DIZ) (Aspergillus niger [24]): inactive; zone of inhibition at 25 µg/mL (Fusarium verticillioides [25]; read-out: DIZ): 4 mm; zone of inhibition at 50 µg/mL (Fusarium verticillioides [26]; read-out: DIZ): 9 mm; zone of inhibition at 75 µg/mL (Fusarium verticillioides [27]; read-out: DIZ): 15 mm; zone of inhibition at 100 µg/mL (Fusarium verticillioides [28]; read-out: DIZ): 20 mm; diameter of the inhibition zone (DIZ) (Fusarium oxysporum [29]): inactive; zone of inhibition at 50 µg/mL (Fusarium oxysporum [30]): 5 mm; zone of inhibition at 75 µg/mL (Fusarium oxysporum [31]): 9 mm; zone of inhibition at 100 µg/mL (Fusarium oxysporum [32]): 14 mm
